# pIC50: −log10 of the molar value. Where “and” joins values, the source holds several entries; their conditions need not be identical. Identical values can stand only once.
# How the values were obtained:
# [1] = tested on: testosterone-enhanced ventral prostate and seminal vesicle weights in castrated male Sprague Dawley rats; test: Ventral Prostate and Seminal Vesicle Weight In Vivo Assay; parameters: species or system rat; conditions: immature castrated rats; once daily for five days, usually orally at 40 mg/kg, with testosterone propionate 2 mg/kg s.c.
# Procedure: Immature (approximately 50 g) castrated male Sprague Dawley rats (Charles River) were treated once daily for five days with test compound (usually given orally at 40 mg/kg in a volume of 0.3 mL, in 30% cyclodextrin or 0.5% methylcellulose vehicle) and with testosterone propionate (given subcutaneously by injection at the nape of the neck at 2 mg/kg, in a volume of 0.1 mL in sesame oil). On the sixth day, the rats were euthanized by asphyxiation in carbon dioxide. Ventral prostates and seminal vesicles were removed and their wet weights determined.
# A test compound was said to be “active” if the non weight adjusted prostate weight was ≦40 mg or the % Inhibition prostate weight, body weight adjusted was ≧40% @2 mg/day dosage.
# [2] = biological target: T1, androgen receptor (adenovirus AdEasy+rAR in L929 cells) (Rattus norvegicus, UniProt P15207); test: L929 Androgen Receptor Functional Assay, Adenovirus Transduction; format: cell-based; conditions: for % Activity: L929 agonist testing
# T1 construct: expressed in transfected cells
# T1 sequence (P15207 1-902): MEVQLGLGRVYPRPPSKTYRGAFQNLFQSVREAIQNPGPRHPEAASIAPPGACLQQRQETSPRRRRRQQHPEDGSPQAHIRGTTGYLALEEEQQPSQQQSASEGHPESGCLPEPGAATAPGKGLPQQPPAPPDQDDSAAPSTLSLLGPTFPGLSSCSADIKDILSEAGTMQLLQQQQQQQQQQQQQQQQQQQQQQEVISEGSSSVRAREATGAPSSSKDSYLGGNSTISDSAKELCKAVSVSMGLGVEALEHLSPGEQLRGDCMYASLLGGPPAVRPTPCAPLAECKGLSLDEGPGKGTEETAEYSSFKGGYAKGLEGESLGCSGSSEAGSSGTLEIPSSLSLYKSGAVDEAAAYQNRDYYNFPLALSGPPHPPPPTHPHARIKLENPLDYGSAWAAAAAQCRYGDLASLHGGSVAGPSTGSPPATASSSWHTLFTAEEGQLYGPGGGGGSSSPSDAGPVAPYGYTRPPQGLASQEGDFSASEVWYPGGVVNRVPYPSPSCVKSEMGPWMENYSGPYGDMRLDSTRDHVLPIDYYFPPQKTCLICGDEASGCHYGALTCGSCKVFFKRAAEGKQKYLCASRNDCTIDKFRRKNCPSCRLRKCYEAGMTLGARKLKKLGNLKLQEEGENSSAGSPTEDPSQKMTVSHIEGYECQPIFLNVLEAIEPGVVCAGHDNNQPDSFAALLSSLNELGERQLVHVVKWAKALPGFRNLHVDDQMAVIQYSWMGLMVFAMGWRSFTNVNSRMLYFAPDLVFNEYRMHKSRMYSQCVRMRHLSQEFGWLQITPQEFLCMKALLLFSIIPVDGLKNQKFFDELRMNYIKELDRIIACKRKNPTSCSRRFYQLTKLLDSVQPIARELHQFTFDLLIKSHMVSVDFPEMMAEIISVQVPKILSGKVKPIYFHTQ
# Procedure: L929 cells were plated in 96-well plates at 20,000 cells per well, in DMEM/F12 (GIBCO) containing 10% (v/v) charcoal-treated fetal bovine serum (Hyclone) and lacking phenol red. The plates were then incubated overnight at 37° C. in 5% (v/v) humidified CO2.
# Test compound dilutions were prepared in 100% (v/v) DMSO, if necessary. Each dilution was made to 1250× the final desired assay concentration.
# First, 2 mL of DMEM/F12 lacking phenol red was pipetted into the wells of a 2-mL 96-well assay block. Next, 4 μL of the 1250× test compound dilutions were pipetted into each well of the assay block. The mixtures within the well were then carefully mixed by pipette.
# In a 15 mL or 50 mL sterile centrifuge tube, a 2.5 nM (2.5×) dilution of R1881 (methyl-trienolone) in DMEM/F12 lacking phenol red was prepared.
# In a second 15 mL or 50 mL centrifuge tube a solution containing an equal volume of DMEM to the first and an equal volume of 100% (v/v) DMSO to the volume of R1881 used in the first tube was prepared.
# In a 15 mL or 50 mL sterile centrifuge tube, a dilution in DMEM/F12 of the adenovirus AdEasy+rAR at an moi of 1:500 per well was prepared.
# The medium was removed from the 96-well plates by inversion and dried, inverted, very briefly. As soon as possible after medium removal, 40 μL of the diluted unlabeled test compound was added to each well, in duplicate. To each well designated for antagonist testing was added 40 μL of the 2.5 nM R1881 dilution to the wells for antagonist testing. To each well designated for agonist testing was added 40 μL of the DMSO dilution. Then 20 μL of the diluted adenovirus were added to all wells. The plates were incubated for 48 hours at 37° C. in 5% (v/v) humidified CO2.
# To each well was added 100 μL of Steady-Glo luciferase assay substrate (Promega) and the plates were placed on a rotary shaker for 1 min. The plates were then incubated at room temperature in the dark for one hour. The contents of each well were then transferred to a white microtiter plate (Packard) and read on a Luminoskan Ascent (Thermo Lab Systems).
# L929 AR percent activity was determined by testing dilutions of the test compound using a concentration of 3000 nM unless otherwise noted. L929 percent inhibition was determined by testing dilutions of the test compound using a concentration of 3000 nM. […] Luciferase activity per well were measured and EC50s and IC50s determined by linear regression.
# [3] = biological target: T2, androgen receptor (adenovirus AdEasy+rAR in COS-7 cells) (Rattus norvegicus, UniProt P15207); test: COS-7 Whole-Cell Androgen Receptor Binding Assay, Adenovirus Transduction; conditions: for % Inhibition / inhibition at 3 µM: COS binding, 3000 nM unless otherwise noted
# T2 construct: expressed in transfected cells
# T2 sequence (P15207 1-902): T1 sequence (P15207 1-902)
# Procedure: COS-7 cells were plated in 96-well plates at 20,000 cells per well, in a solution of DMEM/F12 (GIBCO) containing 10% (v/v) charcoal-treated fetal bovine serum (Hyclone) and lacking phenol red. The cells were then incubated overnight at 37° C. in 5% (v/v) humidified CO2.
# Test compound solutions were prepared by diluting the test compound in 100% (v/v) DMSO, if necessary.
# Next, 1 mL of DMEM/F12 lacking phenol red was pipetted into each of the wells of a 2-mL 96-well assay block. […] The wells were carefully mixed by pipette.
# In a 15 mL or 50 mL sterile centrifuge tube, a dilution in DMEM/F12 of the adenovirus AdEasy+rAR at a moi of 1:50 per well was prepared.
# The medium was removed from the 96-well plates by inversion and the plates dried very briefly, inverted, on a sterile towel. As soon as possible after medium removal, 40 μL of the diluted test compound was added to each well, in duplicate. […] The plates were then incubated for 48 hours at 37° C. in 5% (v/v) humidified CO2.
# The medium was removed from the above incubated plates by inversion and dried. Each well was then washed with 0.35 mL of 1×PBS. The PBS was then removed from the plates by inversion and the plates dried.
# To each well was then added 50 μL of 0.5% (v/v) Triton X-100 (Sigma) in 1×PBS and the plates placed on a rotary shaker for 5 min. The contents of each well were then transferred to an OptiPlate-96 (Packard) scintillation plate. To each well was then added 0.2 mL of Microscint-20 (Packard) and the wells counted on a TopCount (Packard).
# […] Counts per well were measured and percents of inhibition determined. […] Counts per well were measured and IC50s determined by linear regression.
SMILES,active / inactive (inhibition of testosterone-enhanced prostate weight) [1],% Activity ([2]; 3000 nM),other results
CC[S+]([O-])CC(C)(O)c1cc2cc(C(F)(F)F)c([N+](=O)[O-])cc2[nH]1 (mixture of isomers) [compound 230],active,0%,
CSCCC(C)(O)c1cc2cc(Cl)c(C(F)(F)F)cc2[nH]1 (racemic) [compound 51],inactive,2%,
CCSCC(C)(O)c1cc2cc(Cl)ccc2n1S(C)(=O)=O (racemic) [compound 154],,2%,"% Inhibition ([2]; L929 antagonist testing with R1881, 3000 nM): 7%; % Inhibition [3]: 50%"
CCCSCC(C)(O)c1cc2cc(Cl)c(C(F)(F)F)cc2[nH]1 (racemic) [compound 196],inactive,13%,
CC(O)(CSCc1ccco1)c1cc2cc([N+](=O)[O-])c(C(F)(F)F)cc2[nH]1 (racemic) [compound 198],inactive,7%,
CC(O)(CS(=O)(=O)CC(F)(F)F)c1cc2cc([N+](=O)[O-])c(C(F)(F)F)cc2[nH]1 (racemic) [compound 208],active,1%,
CCSCC(C)(O)c1[nH]c2cc(C(F)(F)F)c([N+](=O)[O-])cc2c1C (racemic) [compound 221],inactive,−1%,
CCS(=O)(=O)CC(C)(O)c1cc2cc(C#N)c(C(F)(F)F)cc2n1C (racemic) [compound 240],inactive,0%,
CCS(=O)(=O)CC(C)(O)c1[nH]c2cc(C(F)(F)F)c(C#N)cc2c1C (racemic) [compound 246],,,inhibition at 3 µM [3]: 70%
CSC(C)(O)c1cc2cc([N+](=O)[O-])c(C(F)(F)F)cc2[nH]1 (racemic) [compound 267],inactive,,"% Activity ([2]; 3000 nM, 3 µM): −5% and 0%"
"CSCC(C)(O)c1cc2cc([N+](=O)[O-])c(C(F)(F)F)cc2[nH]1 (single isomer, unassigned) [compound 145]",,,"% Activity ([2]; 3000 nM, 3 µM): 1%; % Inhibition [3]: 84.7%"
"CCSCC(C)(O)c1cc2cc([N+](=O)[O-])c(C(F)(F)F)cc2[nH]1 (single isomer, unassigned) [compound 149]",,,"% Activity ([2]; 3000 nM, 3 µM): 2%; % Inhibition [3]: 63% and 78%"
"CCSCC(C)(O)c1cc2cc([N+](=O)[O-])c(C(F)(F)F)cc2[nH]1 (single isomer, unassigned) [compound 150]",,,% Activity ([2]; @ 8000 nM): 0 @ 8000 nM %; % Inhibition [3]: 81% and 74%
"CCSCC(C)(O)c1[nH]c2cc(C(F)(F)F)c([N+](=O)[O-])cc2c1C#N (single isomer, unassigned) [compound 247]",inactive,,% Inhibition [3]: 90%
"CCSCC(C)(O)c1cc2cc(C#N)c(C(F)(F)F)cc2[nH]1 (stereo not shown) [Compound #218, 2-(2-Ethylsulfanyl-1-hydroxy-1-methyl-ethyl)-6-trifluoromethyl-1H-indole-5-carbonitrile]",inactive,0%,
CCSCC(O)(CC)c1cc2cc(C#N)c(C(F)(F)F)cc2[nH]1 (stereo not shown) [Compound #223],active,,% Activity ([2]; @ 8000 nM): 0 @ 8000 nM %
O=[N+]([O-])c1cc2cc(C3(O)CCSCC3)[nH]c2cc1C(F)(F)F [compound 17],inactive,,pIC50 [3]: < 5.82
CC(O)(CSc1ccc(O)cc1)c1cc2cc(Cl)c(C(F)(F)F)cc2[nH]1 (stereo not shown) [compound 120],,−5%,inhibition at 3 µM [3]: 86%
CC(O)(CSc1ccccc1N)c1cc2cc(Cl)c(C(F)(F)F)cc2[nH]1 (stereo not shown) [compound 123],inactive,−4%,% Activity ([2]; @ 8000 nM): 1 @ 8000 nM %
CN(C)c1ccc(SCC(C)(O)c2cc3cc(Cl)c(C(F)(F)F)cc3[nH]2)cc1 (stereo not shown) [compound 124],inactive,−4%,
CCSCC(C)(O)c1cc2cc(Cl)c(C(F)(F)F)cc2[nH]1 (stereo not shown) [compound 152],inactive,,inhibition at 3 µM [3]: 39%
CC(O)(CS(=O)(=O)CC(F)(F)F)c1[nH]c2cc([N+](=O)[O-])c(C(F)(F)F)cc2c1Cl (stereo not shown) [compound 207],active,,"% Activity ([2]; 3000 nM, 3 µM): 1% and −1%"
CCSCC(C)(O)c1[nH]c2cc(C(F)(F)F)c(C#N)cc2c1C (stereo not shown) [compound 219],inactive,,"% Activity ([2]; 3000 nM, 3 µM): −3%"
CCSCC(C)(O)c1[nH]c2cc(C(F)(F)F)c(Br)cc2c1C (stereo not shown) [compound 220],inactive,−3%,"inhibition at 3 µM ([2]; L929, L929 antagonist testing with R1881, 3000 nM): 103%"
CCSCC(C)(O)c1[nH]c2cc(C(F)(F)F)c([N+](=O)[O-])cc2c1C#N (stereo not shown) [compound 242],inactive,,inhibition at 3 µM [3]: 92%

# From patent US8394971B2, “Indole derivatives as selective androgen receptor modulators (SARMS)” (Janssen Pharmaceutica N.V., priority 2004, dated 2013)
